# Results from a melting point compilation (Tetko et al.; mined from patent text by program, amines drawn as free bases though some values may be those of a salt).
row,SMILES,melting point [°C]
1,CC(=O)SCC(Cc1ccccc1)C(=O)Nc1ccc(N(C)C)c(C(=O)O)c1 (centres undefined),168 to 169
2,CNc1nc(-c2cccnc2)nc(SC)c1C(=O)Nc1ccc(OC)cc1,184 to 197
3,Cc1cc(-c2nc(-c3ccncc3)nn2C)cc(C)n1,176 to 178
4,NCc1cc(-c2ccc(Cl)cc2)no1,81
5,O=C(O)C1CCN2c3ccc(Cl)cc3Oc3ccccc3C2C1 (centres undefined),209 to 211
6,CCCCc1nn(-c2ccc(C(F)(F)F)cn2)cc1C(=O)OCC,58 to 59
7,Cc1oc2cc(NC(=O)C(=O)O)ccc2c(=O)c1C,234 to 240
8,CCOC(=NC(=O)OC)NC(=O)Nc1ccc(Cl)cc1Cl,92 to 93
9,CCCCCCc1ccc(-c2ccc(-c3ccc(-c4ccc(-c5ccc(-c6ccc(CCCCCC)o6)o5)o4)o3)o2)o1,261
10,O=C(Nc1cccc2cc(COc3ccccc3)cnc12)c1c(Cl)cccc1Cl,157
11,COc1ccc(-c2ccc3c(c2)C=C(C(=O)Nc2ccc(CN(C)C4CCC(=O)CC4)cc2)CCS3(=O)=O)cc1,214 to 218
12,CCC(CCC1(C(N)=O)c2ccccc2-c2ccccc21)NC(C)C (centres undefined),161 to 163
13,COC(=O)c1c(C)nc2c(c1N(C)C)c1ccccc1n2C,106 to 108
14,C#Cc1cnc2c(c1)C(=O)N(C)c1cccnc1N2CC,117 to 118
15,CC(C)CC(=O)Nc1cccc(-c2ccnc3c(C(=O)c4ccoc4)cnn23)c1,144 to 146
16,Nc1nc2c(Cl)cc(C(F)(F)F)cc2[nH]c1=O,270 to 272
17,COc1cccc(C(O)C(C)(C)NC(=O)Cc2ccc(OC)c(OC)c2)c1 (centres undefined),137 to 138
18,COc1ccc(-c2ccc(CCNC(=O)c3cc(Cl)ccc3OC)cc2S(N)(=O)=O)cc1,205 to 208
19,Cn1nc(-c2c(F)cccc2Cl)nc1-c1ccc(OCc2ccc(C(F)(F)F)cc2Cl)c(Cl)c1,156 to 159
20,C=C(C)Cn1c(C)c(C)c2cnnc(OCc3ccc(F)cc3)c21,118 to 120
21,COC(=O)Cc1ccccc1CC(=O)NCCc1ccc(OC)c(OC)c1,88 to 91
22,COc1ccc(SCCCCSc2ccc(OC)cc2)cc1,102 to 103
23,O=[N+]([O-])C=C1SCCCN1S(=O)(=O)CCCCl,99
24,CNC(=O)C(O)C1=CC2(CCCC2)c2ccccc21 (centres undefined),136 to 138
25,Cc1cc(Cl)cc(C(=O)NC(C)C)c1NC(=O)c1cc(Br)nn1N1C=CC=C(Cl)C1,159 to 161
26,CC(C)OC(=O)N1c2ccccc2Sc2cc(O)c3ccccc3c21,205 to 206
27,O=C1CC(Nc2ccc([N+](=O)[O-])cc2)=NN1c1c(Cl)cc(Cl)cc1Cl,295 to 298
28,CCCCOc1cc(C(=O)O)cc([N+](=O)[O-])c1C(=O)c1ccc(C)cc1,162 to 163

row,SMILES,melting point [°C]
1,Cc1cccc(Nc2cc(Cl)nc(SCC(=O)NC(C)CO)n2)c1C (centres undefined),170 to 172
2,COCc1cc(Cl)c2cccc(OC)c2n1,67 to 69
3,CC(=O)Nc1nc2c(Oc3cc(-c4ccc(C(F)(F)F)cc4NC(=O)[C@@H]4CCN4CC(C)C)ncn3)cccc2s1,174 to 175
4,Brc1ccc(N2CCNCC2)nc1,70.6
5,CCN(CC)CCN(CC)C(=O)c1ccccc1Nc1ccnc2c(C(F)(F)F)cccc12,112 to 113
6,CC12C=CC(=O)C=C1CCC1C2=CCC2(C)C1CCC2(O)C(=O)CCl (centres undefined),205 to 206
7,N#Cc1ccc(Cn2cncc2CCCO)cc1,121 to 123
8,Cn1ccnc1Sc1ccc(Nc2c(C#N)cnc3cc(Br)ccc23)cc1Cl,258 to 261
9,O=C(Nc1ccccc1)Nc1ccc(F)c([N+](=O)[O-])c1,200 to 202
10,CCOc1ccc(C=CC(=O)c2c(OC)cc(OC)cc2OP(=O)(O)O)cc1,63 to 64
11,CCCCCC(CC(=O)Nc1cc(CO)ccc1C(C)(C)C)c1ccccc1C(F)(F)F (centres undefined),147 to 148
12,Cc1nnc2n1N=C(c1ccc3c(c1)NC(=O)CO3)C(C)(C)S2,249 to 250
13,O=Cc1c2ccccc2c(C=O)c2ccccc12,224 to 245
14,CS(=O)(=O)c1ccc(-c2oncc2CCCO)cc1,125 to 126
15,CNCC#CC1=Cc2ccccc2Sc2ccc(Cl)cc21,92 to 94
16,O=Cc1c2ccccc2cc2c(Cl)cccc12,129 to 131
17,C=CC12CCc3cc(O)ccc3C1CCC1(C)C(O)CCC12 (centres undefined),149 to 151
18,O=C(Nc1sc2c(c1C(=O)O)CCOC2)c1nn[nH]n1,> 250
19,O=C1CC(Cc2ccccc2Cl)CN1 (centres undefined),87 to 89
20,Cc1nc(-n2cccc(OCc3ccccc3)c2=O)sc1C(=O)NCc1ccccc1,198 to 201
21,CCOC(=O)N1CCC(Nc2nc3ccccc3n2Cc2csc(C)n2)CC1,160
22,CC(C)(C)OC(=O)NCCCCNC1(c2ccccc2Cl)C(=O)Nc2ccc(Cl)cc21 (centres undefined),175 to 176
23,COC(=O)c1cccc2nc(OC)n(Cc3ccc(-c4ccccc4-c4nnn[nH]4)cc3)c12,165 to 166
24,O=C(O)CCCC1NCC2CCCN3CCCC1C23 (centres undefined),185 to 187
25,CN(C)C=CC(=O)c1ccccc1[N+](=O)[O-],118 to 121
26,N#Cc1cccc(OC(=O)C(=O)Oc2cccc(C#N)c2)c1,187 to 190
27,CC(C)n1nc(-c2c(Oc3ccccc3)nc(N)nc2-c2ccccc2)ccc1=O,218 to 221

# Other lines, results leading:
row,melting point [°C],SMILES
1,90,CN(C(=O)COc1cc(-c2ccccc2)nc2ccccc12)C(C)(C)C
2,222 to 225,COc1cc(Br)c(OC)c(C(N)=O)c1
3,87 to 89,CC(C)(C)OC(=O)C=C(O)c1cccnc1Oc1ccc(F)cc1
4,173,CC1(C)CC(OC(=O)Nc2ccccc2)CC(C)(C)N1CC(OC(=O)Nc1ccccc1)c1ccccc1 (centres undefined)
5,197 to 198,O=c1c2ccccc2sc2c(Cl)cc(Cl)c(Oc3ccccc3)c12
6,123 to 125,CN(C(=O)Nc1ccc(OC(F)(F)F)cc1)c1nc(OCC(F)(F)F)cc(OCC(F)(F)F)n1
7,107 to 109,COc1ccc(NC(=O)c2ccccc2-c2cccc(OC)c2)cc1
8,122 to 123,O=C1/C(=C(\NCCO)c2ccccc2)Sc2ccccc21
9,161 to 165,COc1cc2c(c3c1OC(C)(C)C3)C(c1cccc(-c3ccc(C(=O)O)cc3)c1)=NC(C)(C)C2
10,94.5 to 95.5,CSc1ccc(C(=O)Cc2cccc(F)c2)cc1
11,136,C[C@@H]1CCCN1CCCOc1ccc(-c2ccc(S(=O)(=O)Cc3ccccc3)nn2)cc1
12,46.5 to 48.5,Fc1cccc2c1CNC2
13,262,NS(=O)(=O)c1cccc(-c2noc(-c3cnn4c(C(F)(F)F)cc(-c5ccc(C(F)(F)F)cc5)nc34)n2)c1
14,161 to 162,NC(=O)c1ccc(F)c(O)c1F
15,282 to 284,Cc1[nH]c(=O)ccc1C(=O)c1ccc([N+](=O)[O-])cc1
16,271 to 273,CC(C)(C)c1ccc2c(c1)cc(-c1ccccc1)n2-c1ccc(O)c(C(=O)O)c1
17,131 to 134,Cc1c(Sc2cccnn2)oc2ccc(Cl)cc12
18,261 to 266,Cn1cc(C(N)=O)c(Nc2ccc(C#N)cc2F)cc1=O
19,193,CC(=O)c1cccc(NC(=O)NCCN(CCNC(=O)Nc2cccc(C(C)=O)c2)CCNC(=O)Nc2cccc(C(C)=O)c2)c1
20,156 to 157,O=C(CN1CC=CCC1)NC(=O)N1CCN2C(=O)OC(c3ccccc3)(c3ccccc3)C2C1 (centres undefined)
21,208 to 210,O=C1c2ccccc2-n2c(nc3ccccc3c2=O)CN1CCc1ccccc1
22,78 to 79,CCc1nccn1-c1nc(-c2ccc(Cl)cc2)c(CCCOc2ccccc2OC)o1

row,melting point [°C],SMILES
1,87 to 88,Cc1nn(-c2cncc(F)c2)cc1I
2,116 to 118,O=C(O)C(=O)c1cccc(OCc2ccccc2Cl)c1OCc1ccccc1Cl
3,225 to 227,CCOC(=O)C1C(=O)c2cc(OC)ccc2N=C1c1ccccc1 (centres undefined)
4,113 to 115,CCCCn1nc(C(OC)OC)nc1Cc1ccc(-c2ccccc2-c2nnn[nH]2)nc1
5,92 to 94,CC1CCN(c2scc(C(C)(C)C)c2C#N)C1=O (centres undefined)
6,154 to 156,Cn1c2cc(Cl)ccc2c2oc(C(=O)Cl)cc21
7,45 to 46,CCOC(=O)c1ccc(OCCCCCCCCCCC(C(=O)CC)C(=O)CC)cc1
8,86 to 87,CC(=O)N1CC(C)(C)c2cc(OC(C)C)ccc21
9,199 to 200,FC(F)(F)c1cccc(CSc2nnc(-c3ncnc4[nH]ccc34)o2)c1
10,140 to 143,COc1cc(OC)c(N2CCCC2)cc1/C=C/C(=O)c1ccc(S(=O)(=O)NCCCn2ccnc2)cc1
11,67 to 69,CC(C)C[C@H](NC(=O)OCc1ccccc1)C(=O)N[C@@H](Cc1ccccc1)C(=O)CSCCN(C)C
12,151 to 152,CCOC(=O)C1=C(C)NC(C)=C(C(=O)OCC)C1c1ccc(Cl)cc1
13,150,CCn1c(-c2ccnc(N)c2)nnc1C(C)(C)Oc1c(F)cc(Cl)cc1F
14,211,CC(C)(C)c1cc(C(C(=O)O)c2cc(C(C)(C)C)c(O)c(C(C)(C)C)c2)cc(C(C)(C)C)c1O
15,115 to 120,CCOC(=O)COc1ccc2cc(-c3oc4ccccc4c3CCC3CCCC3)ccc2c1Br
16,60 to 62,CCCCc1oc2ccccc2c1C(O)c1ccc(-c2cc(Br)c(O)c(Br)c2)cc1 (centres undefined)
17,60 to 63,O=C(CN1CCCC1)Nc1ccc(Br)cc1
18,87,CCc1cc(C(C)=O)c(O)cc1OCCCCCn1cncn1
19,154 to 155,CCn1ncc2c(O)c3c(nc21)CCc1ccccc1C3=O
20,275,CS(=O)(=O)c1c(Cl)nc(N)nc1Cl
21,126 to 131,CCCCNC(=O)NS(=O)(=O)c1cscc1C
22,115,Cn1c(=O)cc(CCc2cccc(Cl)c2)c2cc(C(O)(c3ccc(Cl)cc3)c3cccnc3)ccc21 (centres undefined)
